Measured values as given in ChEMBL document CHEMBL4616717, “Discovery of GNE-149 as a Full Antagonist and Efficient Degrader of Estrogen Receptor alpha for ER+ Breast Cancer” (ACS Med Chem Lett, 2020).
Activity calls are given as the source filed them. The calls are words filed in the database; no cut-off is given here.

Assays:
Estrogen receptor [1] = molecular target: T1, Estrogen receptor (Homo sapiens, UniProt P03372); assay: Induction of ERalpha degradation in human MCF7 cells after 4 hrs by FITC/Hoechst staining based immunofluorescence imaging analysis; assay type: cell-based
T1 sequence (P03372 whole entry): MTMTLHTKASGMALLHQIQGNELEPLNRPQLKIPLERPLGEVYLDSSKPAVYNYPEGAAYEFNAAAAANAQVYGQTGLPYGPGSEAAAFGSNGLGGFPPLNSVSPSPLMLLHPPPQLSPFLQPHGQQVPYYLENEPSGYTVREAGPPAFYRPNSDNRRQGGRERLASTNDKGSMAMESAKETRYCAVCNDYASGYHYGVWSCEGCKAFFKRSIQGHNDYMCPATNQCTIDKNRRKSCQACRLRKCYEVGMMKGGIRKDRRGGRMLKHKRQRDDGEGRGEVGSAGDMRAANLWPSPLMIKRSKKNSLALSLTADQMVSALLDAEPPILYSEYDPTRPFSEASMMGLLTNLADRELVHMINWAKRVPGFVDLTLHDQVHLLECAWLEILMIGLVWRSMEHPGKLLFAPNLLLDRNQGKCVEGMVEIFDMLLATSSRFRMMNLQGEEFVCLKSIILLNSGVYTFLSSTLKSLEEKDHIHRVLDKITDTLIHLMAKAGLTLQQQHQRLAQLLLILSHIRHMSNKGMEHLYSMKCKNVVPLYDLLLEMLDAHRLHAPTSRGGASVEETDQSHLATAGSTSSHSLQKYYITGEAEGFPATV

MCF7 [2] = assay: Antiproliferative activity against human MCF7 cells assessed as reduction in cell viability after 72 hrs by Celltiter-Glo assay; assay type: functional, cell-based; details: MCF7, 72 h
T47D = assay: Antiproliferative activity against human T47D cells assessed as reduction in cell viability; assay type: functional, cell-based
Estrogen receptor [3] = molecular target: T1, Estrogen receptor; assay: Agonist activity at ERalpha in human Ishikawa cells after 72 hrs by alkaline phosphatase assay; assay type: cell-based
[4] = Clearance in rat; assay type: ADME; details: in vivo
[5] = Oral bioavailability in rat; details: in vivo
[6] = Clearance in dog; assay type: ADME, Canis lupus familiaris; details: in vivo
[7] = Oral bioavailability in dog; details: in vivo
[8] = Clearance in cynomolgus monkey; assay type: ADME, Macaca fascicularis; details: in vivo
[9] = Oral bioavailability in cynomolgus monkey; details: in vivo
[10] = molecular target: T2, Estrogen receptor (Rattus norvegicus) (UniProt P06211); assay: In vivo antagonist activity at ERalpha in CRL:CD(SD) rat assessed as inhibition of estradiol-induced increase in uterine wet weight at 10 mg/kg, po administered as MCT suspension for 3 days and measured at 4 hrs post last dose on day 4; assay type: functional, organism-based
T2 sequence (whole entry): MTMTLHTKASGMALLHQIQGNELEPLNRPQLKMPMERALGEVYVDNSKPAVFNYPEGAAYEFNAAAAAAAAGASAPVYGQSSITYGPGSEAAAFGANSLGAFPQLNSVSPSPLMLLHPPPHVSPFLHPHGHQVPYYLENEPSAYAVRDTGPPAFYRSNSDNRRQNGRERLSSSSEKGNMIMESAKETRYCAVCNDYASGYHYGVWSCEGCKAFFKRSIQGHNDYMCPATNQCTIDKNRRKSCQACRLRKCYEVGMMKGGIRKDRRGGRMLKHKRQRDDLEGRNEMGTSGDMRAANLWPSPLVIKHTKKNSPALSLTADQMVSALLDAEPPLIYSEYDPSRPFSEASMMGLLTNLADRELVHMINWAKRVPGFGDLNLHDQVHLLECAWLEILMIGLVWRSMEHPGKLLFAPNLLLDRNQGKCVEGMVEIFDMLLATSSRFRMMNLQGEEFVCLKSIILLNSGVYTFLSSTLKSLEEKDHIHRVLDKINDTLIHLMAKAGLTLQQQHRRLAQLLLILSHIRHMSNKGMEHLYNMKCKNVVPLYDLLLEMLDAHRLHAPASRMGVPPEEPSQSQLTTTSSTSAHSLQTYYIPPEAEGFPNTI

MCF7 [11] = assay: Antitumor activity against human MCF7 cells expressing wild-type ER xenografted in po dosed CRL:NU-Foxn1 mouse administered qd for 28 days in presence of 17-beta-estradiol pellets and measured twice per week by caliper method; assay type: functional, organism-based
MCF7 [12] = assay: Antitumor activity against human MCF7 cells harboring ER Y537S mutant xenografted in po dosed CRL:NU-Foxn1 mouse assessed as tumor regression administered qd for 21 days in presence of 17-beta estradiol pellets and measured twice per week by caliper method; assay type: functional, organism-based
MCF7 [13] = assay: Antitumor activity against human MCF7 cells harboring ER Y537S mutant xenografted in CRL:NU-Foxn1 mouse assessed as tumor regression at 1 to 30 mg/kg, po qd for 21 days in presence of 17-beta estradiol pellets and measured twice per week by caliper method; assay type: functional, organism-based

SMILES: C=CCN1CC(Oc2cc(F)c([C@@H]3c4[nH]c5ccccc5c4C[C@@H](C)N3CC(C)(C)F)c(F)c2)C1
- IC50 (Estrogen receptor [1]): 0.15 nM
- IC50 (MCF7 [2]): 0.84 nM

SMILES: C[C@@H]1Cc2c([nH]c3ccccc23)[C@@H](c2c(F)cc(OC3CN(CCCCF)C3)cc2F)N1CC(C)(C)F
- IC50 (Estrogen receptor [1]): 0.39 nM
- IC50 (MCF7 [2]): 8.5 nM

SMILES: C[C@@H]1Cc2c([nH]c3ccccc23)[C@@H](c2c(F)cc(OC3CN(CCF)C3)cc2F)N1CC(C)(C)F
- IC50 (Estrogen receptor [1]): 0.18 nM
- IC50 (MCF7 [2]): 1.3 nM

SMILES: C[C@@H]1Cc2c([nH]c3ccccc23)[C@@H](c2c(F)cc(OC3CN(C[C@H]4C[C@H]4F)C3)cc2F)N1CC(C)(C)F
- IC50 (Estrogen receptor [1]): 0.56 nM
- IC50 (MCF7 [2]): 1.8 nM

SMILES: C[C@@H]1Cc2c([nH]c3ccccc23)[C@@H](c2c(F)cc(OC3CN(C[C@H]4C[C@@H]4F)C3)cc2F)N1CC(C)(C)F
- IC50 (Estrogen receptor [1]): 0.55 nM
- IC50 (MCF7 [2]): 6.4 nM

SMILES: C[C@@H]1Cc2c([nH]c3ccccc23)[C@@H](c2c(F)cc(OC[C@H](C)N3CC[C@@H](CF)C3)cc2F)N1CC(C)(C)F
- IC50 (MCF7 [2]): 1.7 nM

SMILES: C[C@@H]1Cc2c([nH]c3ccccc23)[C@@H](c2c(F)cc(OC3CN(CCCCl)C3)cc2F)N1CC(C)(C)F
- IC50 (MCF7 [2]): 3 nM

SMILES: C[C@]12CC[C@@H]3c4ccc(O)cc4C[C@@H](CCCCCCCCC[S+]([O-])CCCC(F)(F)C(F)(F)F)[C@H]3[C@@H]1CC[C@@H]2O (stereo not given in full) [FULVESTRANT]
- IC50 (MCF7 [2]): 2.6 nM
- IC50 (T47D): 3 nM
- Activity (Estrogen receptor [3]): Not Active

SMILES: C[C@@H]1Cc2c([nH]c3ccccc23)[C@@H](c2c(F)cc(OCCN3CC(C(F)F)C3)cc2F)N1CC(C)(C)F
- IC50 (MCF7 [2]): 2.3 nM

SMILES: C[C@@H]1Cc2c([nH]c3ccccc23)[C@@H](c2c(F)cc(OCCN3CC(F)(CF)C3)cc2F)N1CC(C)(C)F
- IC50 (Estrogen receptor [1]): 0.38 nM
- IC50 (MCF7 [2]): 2.7 nM

SMILES: C[C@@H]1Cc2c([nH]c3ccccc23)[C@@H](c2c(F)cc(OC3CN(CCCF)C3)cc2F)N1CC(C)(C)F
- IC50 (MCF7 [2]): 0.66 nM
- IC50 (T47D): 0.69 nM
- clearance [4]: 19 mL/min/kg
- bioavailability [5]: 31%
- clearance [6]: 8 mL/min/kg
- bioavailability [7]: 49%
- clearance [8]: 13 mL/min/kg
- bioavailability [9]: 28%
- Activity (Estrogen receptor [3]): Not Active
- inhibition [10]: Active
- Activity (MCF7 [11]): Dose-dependent effect
- Activity (MCF7 [12]): Dose-dependent effect
- Activity (MCF7 [13]): Active

SMILES: C#CCN1CC(Oc2cc(F)c([C@@H]3c4[nH]c5ccccc5c4C[C@@H](C)N3CC(C)(C)F)c(F)c2)C1
- IC50 (Estrogen receptor [1]): 0.083 nM
- IC50 (MCF7 [2]): 0.82 nM

SMILES: C[C@@H]1Cc2c([nH]c3ccccc23)[C@@H](c2c(F)cc(OCCN3CC(CF)C3)cc2F)N1CC(C)(C)F
- IC50 (MCF7 [2]): 1.6 nM

SMILES: CC1=C(c2cccc(O)c2)[C@H](c2ccc(OCCN3CC(CF)C3)cc2)Oc2ccc(O)cc21
- IC50 (MCF7 [2]): 0.3 nM
- IC50 (T47D): 0.29 nM
- clearance [4]: 81 mL/min/kg
- clearance [6]: 24 mL/min/kg
- bioavailability [7]: 23%
- clearance [8]: 17 mL/min/kg
- bioavailability [9]: 5%
- Activity (Estrogen receptor [3]): Not Active

SMILES: C[C@@H]1Cc2c([nH]c3ccccc23)[C@@H](c2c(F)cc(OCCN3CC[C@@H](CF)C3)cc2F)N1CC(C)(C)F
- IC50 (MCF7 [2]): 1.5 nM

SMILES: CC1CN(CCOc2cc(F)c([C@@H]3c4[nH]c5ccccc5c4C[C@@H](C)N3CC(C)(C)F)c(F)c2)C1
- IC50 (Estrogen receptor [1]): 0.19 nM
- IC50 (MCF7 [2]): 0.9 nM

SMILES: CC/C(=C(/c1ccc(/C=C/C(=O)O)cc1)c1ccc2[nH]ncc2c1)c1ccc(F)cc1Cl [BRILANESTRANT]
- IC50 (MCF7 [2]): 44 nM
- IC50 (T47D): 27 nM

SMILES: CCCN1CC(Oc2cc(F)c([C@@H]3c4[nH]c5ccccc5c4C[C@@H](C)N3CC(C)(C)F)c(F)c2)C1
- IC50 (MCF7 [2]): 1.5 nM

SMILES: C[C@@H]1Cc2c([nH]c3ccccc23)[C@@H](c2c(F)cc(OC3CN(CC4(CF)CC4)C3)cc2F)N1CC(C)(C)F
- IC50 (Estrogen receptor [1]): 0.52 nM
- IC50 (MCF7 [2]): 5.6 nM
